In assay [1] the test system is M2 and M3 receptors. To be noted: background statement; compounds exhibit M3 antagonist activity; cited from earlier work.
For assay [2], the target named is T1, human M3 receptors (Homo sapiens, UniProt P20309).
T1 construct: purchased Receptor Biology; host or cells: CHO-K1 cells transfected with the human receptor (membranes)
Description: Binding test to cloned human M3 muscarinic receptor ([3H]-NMS displacement, CHO-K1 membranes). To be noted: membranes of CHO-K1 cells transfected with human M3; [3H]-NMS; mean of two independent experiments in duplicate; read-out: M3 (human M3 antagonist activity, binding affinity constant Ki). The protocol:
(§1) Membranes from CHO—K1 cells transfected with human M2 or M3 receptors (Receptor Biology) were used. The summarised experimental procedure for both receptors was the following: membranes (15–20 μg) were incubated with [^3H]-NMS (0.3–0.5 nM) for 60 min at 25° C., in presence or absence of the antagonists. Incubation was carried out in 96 wells polystyrene microplates in a total incubation volume of 0.2 mL of PBS pH 7.4. Non specific binding was determined in parallel assays in presence of atropine (5 μM). Samples were filtered through type GF/C glass fibre, preincubated with PEI 0.3%. Filters were washed 3–4 times with 50 mM Tris-HCl, 0.9% NaCl, pH 7.4 at 4° C., and dried at 50° C. for 45 min. Filter bound radioactivity was quantified by liquid scintillation counting.
(§2) For the calculation of the inhibition constant (Ki), displacement curves were analysed by non-linear regression (GraphPad Prism). Dissociation constant (KD) of [^3H]-NMS for each receptor was obtained through the saturation curves obtained in the same conditions as the experiments carried out with the antagonists.

The target of assay [3] is T2, human M2 receptors (Homo sapiens, UniProt P08172).
T2 construct: purchased Receptor Biology; host or cells: CHO-K1 cells transfected with the human receptor (membranes)
T2 sequence (P08172 1-466): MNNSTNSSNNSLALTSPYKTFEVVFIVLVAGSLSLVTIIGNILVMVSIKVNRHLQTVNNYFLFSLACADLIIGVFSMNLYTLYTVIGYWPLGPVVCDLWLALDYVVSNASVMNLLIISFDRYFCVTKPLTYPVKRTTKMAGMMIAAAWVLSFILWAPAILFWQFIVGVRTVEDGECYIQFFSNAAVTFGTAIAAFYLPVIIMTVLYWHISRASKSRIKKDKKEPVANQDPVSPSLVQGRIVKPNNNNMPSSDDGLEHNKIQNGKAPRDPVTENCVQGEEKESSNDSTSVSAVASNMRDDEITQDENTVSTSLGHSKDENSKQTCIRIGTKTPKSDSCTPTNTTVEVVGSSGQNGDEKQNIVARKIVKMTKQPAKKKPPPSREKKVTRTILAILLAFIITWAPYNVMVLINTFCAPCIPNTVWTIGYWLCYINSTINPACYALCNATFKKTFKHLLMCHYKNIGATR
Description: Binding test to cloned human M2 muscarinic receptor ([3H]-NMS displacement, CHO-K1 membranes), reported as M2/M3 ratio. To be noted: value greater than 1 indicates selectivity for the M3 receptor. As to the method: as §1, §2

The source of these data is patent US7115629B2, “Carbamates derived from arylalkylamines” (Laboratorios S.A.L.V.A.T., S.A., priority 2000, dated 2006).

As a reminder, the pKi is −log10 of the Ki, conventionally taken in molar units.

pKi: −log10 of the molar value.

T1 sequence (P20309 whole entry): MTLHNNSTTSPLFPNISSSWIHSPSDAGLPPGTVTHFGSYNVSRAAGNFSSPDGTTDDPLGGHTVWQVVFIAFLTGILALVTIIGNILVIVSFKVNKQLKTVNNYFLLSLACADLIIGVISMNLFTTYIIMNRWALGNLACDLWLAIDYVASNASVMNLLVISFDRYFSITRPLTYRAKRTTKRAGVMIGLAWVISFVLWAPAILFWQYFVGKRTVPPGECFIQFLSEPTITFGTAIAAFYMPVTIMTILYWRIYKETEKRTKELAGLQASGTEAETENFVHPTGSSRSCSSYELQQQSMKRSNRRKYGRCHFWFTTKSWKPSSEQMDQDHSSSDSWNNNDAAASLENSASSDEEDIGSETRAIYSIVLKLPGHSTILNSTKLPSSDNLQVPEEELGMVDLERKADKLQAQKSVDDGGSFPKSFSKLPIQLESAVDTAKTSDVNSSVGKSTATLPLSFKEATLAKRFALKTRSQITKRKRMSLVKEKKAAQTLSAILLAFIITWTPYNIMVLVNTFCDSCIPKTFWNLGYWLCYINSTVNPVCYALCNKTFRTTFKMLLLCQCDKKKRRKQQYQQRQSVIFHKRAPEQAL

As to `NC(=O)C(c1ccccc1)(c1ccccc1)[C@@H]1CCN(CCc2ccc3c(c2)CCO3)C1` [DARIFENACIN, darifenacin], the “affinity towards the M2 receptor” value in assay [1] is given as “without any significant affinity”.

For `O=C(OC1CN2CCC1CC2)N(Cc1ccc(O)cc1)c1ccccc1` (centres unmarked) [Example 47], the pKi in assay [2] was 8.24. In assay [3], the “M2/M3 (ratio between M2 and M3 receptor affinities)” value amounted to 33.

For `O=C(OC1CN2CCC1CC2)N(Cc1cccc(OCc2ccccc2)c1)c1cccc(Cl)c1` (centres unmarked) [Example 48], the negative logarithm of the Ki (pKi) in assay [2] is 9.37. For the same compound, the “M2/M3 (ratio between M2 and M3 receptor affinities)” value in assay [3] stood at 24.

Turning to `O=C(OC1CN2CCC1CC2)N(Cc1cccc(OC(F)(F)F)c1)c1ccccc1` (centres unmarked) [Example 49], the pKi in assay [2] was 8.00. Besides, the “M2/M3 (ratio between M2 and M3 receptor affinities)” value in assay [3] turned out to be 7.

As for `CC(C)Oc1ccc(CN(C(=O)OC2CN3CCC2CC3)c2ccccc2)cc1` (centres unmarked) [Example 50], the pKi in assay [2] is 9.08. Also, the “M2/M3 (ratio between M2 and M3 receptor affinities)” value in assay [3] is on record as 26.

For `COc1cc(CN(C(=O)OC2CN3CCC2CC3)c2cccc(Cl)c2)ccc1OCc1ccccc1` (centres unmarked) [Example 51], the pKi in assay [2] was 7.28. Moreover, in assay [3], the “M2/M3 (ratio between M2 and M3 receptor affinities)” value was 3.

Turning to `O=C(OC1CN2CCC1CC2)N(Cc1ccc2c(c1)OCO2)c1ccccc1` (centres unmarked) [Example 52], in assay [2], the negative-log Ki (pKi) is 8.92. In assay [3], the “M2/M3 (ratio between M2 and M3 receptor affinities)” value is listed as 25.

As to `Cc1cccc(N(Cc2ccc3c(c2)OCCO3)C(=O)OC2CN3CCC2CC3)c1` (centres unmarked) [Example 53], the pKi in assay [2] was 8.90. The “M2/M3 (ratio between M2 and M3 receptor affinities)” value in assay [3] turned out to be 26.

`O=C(OC1CN2CCC1CC2)N(CC1CC1)c1ccccc1` (centres unmarked) [Example 54]: the pKi in assay [2] was 9.22. Besides, the “M2/M3 (ratio between M2 and M3 receptor affinities)” value in assay [3] came to 32.

Regarding `O=C(OC1CN2CCC1CC2)N(CC1CCC1)c1ccccc1` (centres unmarked) [Example 55], the pKi in assay [2] was 9.46. The “M2/M3 (ratio between M2 and M3 receptor affinities)” value in assay [3] came to 110.

Turning to `Cc1cccc(N(CC2CCCC2)C(=O)OC2CN3CCC2CC3)c1` (centres unmarked) [Example 56], in assay [2], the pKi is 9.12. In assay [3], the “M2/M3 (ratio between M2 and M3 receptor affinities)” value is on record as 37.

With `O=C(OC1CN2CCC1CC2)N(CC1CCCCC1)c1ccccc1F` (centres unmarked) [Example 57], the negative-log Ki (pKi) in assay [2] was 10.60. Moreover, in assay [3], the “M2/M3 (ratio between M2 and M3 receptor affinities)” value was determined as 300.

For the compound `Cc1cccc(N(CC2CCC(C)CC2)C(=O)OC2CN3CCC2CC3)c1` (centres unmarked) [Example 58], the pKi in assay [2] was 10.06. Moreover, the “M2/M3 (ratio between M2 and M3 receptor affinities)” value in assay [3] turned out to be 93.

Turning to `C=C(C)C1CCC(CN(C(=O)OC2CN3CCC2CC3)c2cccc(C)c2)CC1` (centres unmarked) [Example 59], the pKi in assay [2] is 9.11. The “M2/M3 (ratio between M2 and M3 receptor affinities)” value in assay [3] worked out at 90.

For `O=C(OC1CN2CCC1CC2)N(CC1=CCCCC1)c1ccccc1F` (centres unmarked) [Example 60], the pKi in assay [2] is 10.70. Moreover, the “M2/M3 (ratio between M2 and M3 receptor affinities)” value in assay [3] amounted to 48.

As to `O=C(OC1CN2CCC1CC2)N(CC1CC=CCC1)c1cccc(Cl)c1` (centres unmarked) [Example 61], in assay [2], the pKi was 9.46. Also, in assay [3], the “M2/M3 (ratio between M2 and M3 receptor affinities)” value is 74.

Regarding `O=C(OC1CN2CCC1CC2)N(CC1CC2CCC1C2)c1cccc(F)c1` (centres unmarked) [Example 62], the pKi in assay [2] is 9.66. In assay [3], the “M2/M3 (ratio between M2 and M3 receptor affinities)” value amounted to 115.

For `O=C(OC1CN2CCC1CC2)N(CC1CC2C=CC1C2)c1ccccc1` (centres unmarked) [Example 63], the negative-log Ki (pKi) in assay [2] was 10.22. Besides, in assay [3], the “M2/M3 (ratio between M2 and M3 receptor affinities)” value is 64.

Turning to `C[N+]12CCC(CC1)C(OC(=O)N(Cc1ccc(F)cc1)c1ccccc1)C2.[I-]` (centres unmarked) [Example 64], the pKi in assay [2] was 8.44. Further, the “M2/M3 (ratio between M2 and M3 receptor affinities)” value in assay [3] was 30.

Regarding `Cc1ccccc1N(Cc1ccccc1)C(=O)OC1C[N+]2(C)CCC1CC2.[I-]` (centres unmarked) [Example 65], the pKi in assay [2] was 7.84. In addition, in assay [3], the “M2/M3 (ratio between M2 and M3 receptor affinities)” value is recorded as 13.

With `Cc1ccccc1N(Cc1cc(F)c(F)cc1F)C(=O)OC1C[N+]2(C)CCC1CC2.[I-]` (centres unmarked) [Example 66], the pKi in assay [2] is 8.33. Moreover, the “M2/M3 (ratio between M2 and M3 receptor affinities)” value in assay [3] amounted to 18.

As to `Cc1cccc(N(Cc2ccc(F)cc2)C(=O)OC2C[N+]3(C)CCC2CC3)c1.[I-]` (centres unmarked) [Example 67], the pKi in assay [2] is 8.42. In addition, the “M2/M3 (ratio between M2 and M3 receptor affinities)” value in assay [3] was 19.

As to `C[N+]12CCC(CC1)C(OC(=O)N(Cc1ccccc1)c1ccccc1F)C2.[I-]` (centres unmarked) [Example 68], in assay [2], the pKi was 8.00. Also, the “M2/M3 (ratio between M2 and M3 receptor affinities)” value in assay [3] is 5.

For the compound `C[N+]12CCC(CC1)C(OC(=O)N(CC1CCCCC1)c1ccccc1F)C2.[I-]` (centres unmarked) [Example 69], in assay [2], the pKi is 7.85. The “M2/M3 (ratio between M2 and M3 receptor affinities)” value in assay [3] turned out to be 8.

For the compound `O=C(OC1CN2CCC1CC2)N1CCc2ccccc2[C@@H]1c1ccccc1` (some centres unmarked) [YM-905, reference compound], the “affinity towards the M2 receptor” value in assay [1] is reported as “without any significant affinity”. For the same compound, the pKi in assay [2] is 8.76. The “M2/M3 (ratio between M2 and M3 receptor affinities)” value in assay [3] stood at 24.
